Data: patent US8680275B2, “Fused heterocyclic compounds as orexin receptor modulators” (Janssen Pharmaceutica NV, priority 2009, dated 2014)

Legend:
human orexin-2 receptor = human orexin-2 receptor (Homo sapiens (Human), UniProt O43614); experiment: Human orexin 2 receptor radioligand binding ([3H]-EMPA competition); conditions: HEK293 cells stably expressing human orexin-2 receptor; [3H]-EMPA 5 nM final; read-out: OR-2 Ki
Description: (§1) The in vitro affinity of the compounds for the human orexin-1 and orexin-2 receptors was determined by competitive radioligand binding using [^3H]SB SB674042 (1-(5-(2-fluoro-phenyl)-2-methyl-thiazol-4-yl)-1-((S)-2-(5-phenyl-(1,3,4)oxadiazol-2-ylmethyl)-pyrrolidin-1-yl)methanone) (Langmead et al., British Journal of Pharmacology 2004, 141:340-346.) and [^3H]EMPA (N-ethyl-2[(6-methoxy-pyridin-3-yl)-(toluene-2-sulfonyl)-amino]-N-pyridin-3-ylmethyl acetamide) (Malherbe et al., British Journal of Pharmacology, 2009, 156(8), 1326-1341), respectively.
Human Orexin 2 Receptor Radioligand Binding Studies
HEK293 stably expressing human orexin-2 receptor (Genebank accession number NM_001526) were grown to confluency in DMEM/F12 (Gibco, Cat #11039), in DMEM, 10% FBS, 1× Pen/Strep, 1× NaPyruvate, 1×HEPES, 600 ug/ml G418 media on 150 cm^2 tissue culture plates, washed with 5 mM EDTA in PBS (HyClone Dulbecco's Phosphate Buffered Saline 1× with Calcium and Magnesium, Cat #SH30264.01, hereafter referred to simply as PBS) and scraped into 50 ml tubes. After centrifugation (2K xG, 10 min at 4° C.), the supernatant was aspirated and the pellets frozen and stored at −80° C. Cells were resuspended in PBS in the presence of 1 tablet of protease inhibitor cocktail (Roche, Cat. #11836145001) per 50 mL. […] Competition binding experiments in 96 well polypropylene plates were performed using [^3H]-EMPA (Moravek Corporation, specific activity=27 Ci/mmol), diluted to a […] concentration in PBS (5 nM final concentration). Compounds were solubilized in 100% DMSO (Acros Organics, Cat. #61042-1000) and tested over a range of 7 concentrations (from 0.1 nM to 10 μM). The final concentration of DMSO in the reactions is equal to or less than 0.1%. Total and nonspecific binding was determined in the absence and presence of 10 μM (N-[2-(3,4-dimethoxyphenyl)ethyl]-N-methylnaphthalene-1-carboxamide, CAS Registry #1089563-88-1). The total volume of each reaction is 200 μL (20 μL of diluted compounds, 80 μL of [^3H]-EMPA diluted in PBS and 100 μL of the cell suspension). Reactions were run for 60 min at room temperature and terminated by filtration through GF/C filter plates (PerkinElmer, Cat. #6005174) presoaked in 0.3% polyethylenimine using the cell harvester (Perkin Elmer Filtermate). The plates were washed 3 times by aspirating 30 ml PBS through the plates. Plates were dried in 55° C. oven for 60 min, scintillation fluid was added, and the radioactivity was counted on a Topcount (Packard).

human orexin 1 receptor = human orexin 1 receptor (Homo sapiens (Human), UniProt O43613); experiment: Human orexin 1 receptor radioligand binding ([3H]-SB674042 competition); conditions: CHO cells stably expressing human orexin 1 receptor; [3H]-SB674042 4 nM final; read-out: OR-1 Ki
Description: as §1
Human Orexin 1 Receptor Radioligand Binding Studies
Chinese ovary cells (CHO) stably expressing human orexin 1 receptor (Genebank accession number NM_001526) were grown to confluency in DMEM/F12 (Gibco, Cat #11039), 10% FBS, 1× Pen/Strep, 600 μg/mL G418 media on 150 cm^2 tissue culture plates, washed with 5 mM EDTA in PBS (HyClone Dulbecco's Phoshpate Buffered Saline 1× with Calcium and Magnesium, Cat #SH30264.01, hereafter referred to simply as PBS) and scraped into 50 ml tubes. After centrifugation (2K xG, 10 min at 4° C.), the supernatant was aspirated and the pellets frozen and stored at −80° C. Cells were resuspended in PBS in the presence of 1 tablet of protease inhibitor cocktail (Roche, Cat. #11836145001) per 50 mL. […] Compounds were solubilized in 100% DMSO (Acros Organics, Cat. #61042-1000) and tested over a range of 7 concentrations (from 0.1 nM to 10 μM). The final concentration of DMSO in the reactions is equal to or less than 0.1%. Total and nonspecific binding was determined in the absence and presence of 10 μM (1-(6,8-difluoro-2-methylquinolin-4-yl)-3-[4-(dimethylamino)phenyl]urea, CAS Registry #288150-92-5). The total volume of each reaction is 200 μL (20 μL of diluted compounds, 80 μL of [^3H]-SB674042 diluted in PBS and 100 μL of the cell suspension). Reactions were run for 60 min at room temperature and terminated by filtration through GF/C filter plates (PerkinElmer, Cat. #6005174) presoaked in 0.3% polyethylenimine using the cell harvester (PerkinElmer Filtermate). The plates were washed 3 times by aspirating 30 ml PBS through the plates. Plates were dried in 55° C. oven for 60 min, scintillation fluid was added, and the radioactivity was counted on a Topcount (Packard).

human orexin-2 receptor, sequence (O43614 whole entry): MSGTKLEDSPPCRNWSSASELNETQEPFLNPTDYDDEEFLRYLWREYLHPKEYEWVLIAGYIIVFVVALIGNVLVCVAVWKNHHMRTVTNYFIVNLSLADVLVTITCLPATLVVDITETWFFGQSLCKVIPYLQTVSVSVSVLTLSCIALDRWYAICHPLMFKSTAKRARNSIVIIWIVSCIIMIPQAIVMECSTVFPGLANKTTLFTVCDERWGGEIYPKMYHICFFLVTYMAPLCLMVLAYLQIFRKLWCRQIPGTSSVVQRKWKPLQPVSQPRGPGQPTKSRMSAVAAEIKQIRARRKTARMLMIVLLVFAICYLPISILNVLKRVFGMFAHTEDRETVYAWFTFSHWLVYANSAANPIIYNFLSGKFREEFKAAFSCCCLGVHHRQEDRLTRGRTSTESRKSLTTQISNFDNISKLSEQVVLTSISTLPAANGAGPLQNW
human orexin 1 receptor, sequence (O43613 whole entry): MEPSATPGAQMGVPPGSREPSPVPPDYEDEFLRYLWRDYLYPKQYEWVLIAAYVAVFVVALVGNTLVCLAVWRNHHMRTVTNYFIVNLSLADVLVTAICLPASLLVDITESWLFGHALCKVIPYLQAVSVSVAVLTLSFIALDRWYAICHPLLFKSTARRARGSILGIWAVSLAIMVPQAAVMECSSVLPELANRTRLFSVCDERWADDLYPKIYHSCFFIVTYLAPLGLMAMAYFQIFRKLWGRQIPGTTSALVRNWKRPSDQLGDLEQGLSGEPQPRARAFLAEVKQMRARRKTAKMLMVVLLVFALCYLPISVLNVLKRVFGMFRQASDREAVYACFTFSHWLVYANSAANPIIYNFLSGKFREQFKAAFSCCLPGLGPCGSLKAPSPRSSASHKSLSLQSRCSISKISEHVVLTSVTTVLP

Ki (human orexin-2 receptor)	Ki (human orexin 1 receptor)	SMILES
209 nM	659 nM	COc1cccc(OC)c1C(=O)N1CCC2CN(c3cnc4ccccc4n3)C2C1 (stereo not shown) [Example 12, (2,6-Dimethoxy-phenyl)-(8-quinoxalin-2-yl-3,8-diaza-bicyclo[4.2.0]oct-3-yl)-methanone]
144 nM	78 nM	O=C(c1ccccc1Br)N1CC[C@H]2CN(c3cnc4ccccc4n3)[C@H]2C1 [Example 13, (1R,6S)(2-Bromo-phenyl)-(8-quinoxalin-2-yl-3,8-diaza-bicyclo[4.2.0]oct-3-yl)-methanone]
114 nM	96 nM	O=C(c1ccccc1-c1cccnc1)N1CC[C@H]2CN(c3cnc4ccccc4n3)[C@H]2C1 [Example 14, (1R,6S)(2-Pyridin-3-yl-phenyl)-(8-quinoxalin-2-yl-3,8-diaza-bicyclo[4.2.0]oct-3-yl)-methanone]
257 nM	237 nM	COc1cccc(OC)c1C(=O)N1CCC2CN(c3nccc(-c4ccccc4)n3)C2C1 (stereo not shown) [Example 15, (2,6-Dimethoxy-phenyl)-[8-(4-phenyl-pyrimidin-2-yl)-3,8-diaza-bicyclo[4.2.0]oct-3-yl]-methanone]
284 nM	460 nM	COc1cccc(OC)c1C(=O)N1CCC2CN(c3nc4ccccc4o3)C2C1 (stereo not shown) [Example 16, (8-Benzooxazol-2-yl-3,8-diaza-bicyclo[4.2.0]oct-3-yl)-(2,6-dimethoxy-phenyl)-methanone]
763 nM	3830 nM	Cc1cc(C)nc(N2C[C@H]3CCN(C(=O)c4ccccc4-c4ccccc4)C[C@H]32)n1 [Example 18, (1S,6R)Biphenyl-2-yl-[8-(4,6-dimethyl-pyrimidin-2-yl)-3,8-diaza-bicyclo[4.2.0]oct-3-yl]-methanone]
1070 nM	254 nM	Cc1ccc(C)c(S(=O)(=O)N2CCC3CN(c4nccc(-c5ccccc5)n4)C3C2)c1 (stereo not shown) [Example 19, 3-(2,5-Dimethyl-benzenesulfonyl)-8-(4-phenyl-pyrimidin-2-yl)-3,8-diaza-bicyclo[4.2.0]octane]
2110 nM	379 nM	Cc1ccc(S(=O)(=O)N2CC[C@H]3CN(c4cnc5ccccc5n4)[C@H]3C2)c(C)c1 [Example 20, (1R,6S)2-[3-(2,4-Dimethyl-benzenesulfonyl)-3,8-diaza-bicyclo[4.2.0]oct-8-yl]-quinoxaline]
3780 nM	1210 nM	Cc1ccc(C)c(S(=O)(=O)N2CCC3CN(c4cnc5ccccc5n4)C3C2)c1 (stereo not shown) [Example 21, 2-[3-(2,5-Dimethyl-benzenesulfonyl)-3,8-diaza-bicyclo[4.2.0]oct-8-yl]-quinoxaline]
29 nM	473 nM	Cc1cc(C)nc(N2C[C@@H]3CCN(C(=O)c4c(F)cccc4-c4ncccn4)C[C@@H]32)n1 [Example 22, (1R,6S)[8-(4,6-Dimethyl-pyrimidin-2-yl)-3,8-diaza-bicyclo[4.2.0]oct-3-yl]-(2-fluoro-6-pyrimidin-2-yl-phenyl)-methanone]
20 nM	619 nM	Cc1cc(C)nc(N2C[C@@H]3CCN(C(=O)c4cc(F)ccc4-c4ncccn4)C[C@@H]32)n1 [Example 23, (1R,6S)[8-(4,6-Dimethyl-pyrimidin-2-yl)-3,8-diaza-bicyclo[4.2.0]oct-3-yl]-(5-fluoro-2-pyrimidin-2-yl-phenyl)-methanone]
28 nM	143 nM	Cc1ccc(-c2ncccn2)c(C(=O)N2CC[C@H]3CN(c4nc(C)cc(C)n4)[C@H]3C2)c1 [Example 27, (1R,6S)-[8-(4,6-Dimethyl-pyrimidin-2-yl)-3,8-diaza-bicyclo[4.2.0]oct-3-yl]-(5-methyl-2-pyrimidin-2-yl-phenyl)-methanone]
21 nM	330 nM	Cc1cc(C)nc(N2C[C@@H]3CCN(C(=O)c4ccccc4-c4ncccn4)C[C@@H]32)n1 [Example 28, (1R,6S)-[8-(4,6-Dimethyl-pyrimidin-2-yl)-3,8-diaza-bicyclo[4.2.0]oct-3-yl]-(2-pyrimidin-2-yl-phenyl)-methanone]
11 nM	325 nM	Cc1cc(C)nc(N2C[C@@H]3CCN(C(=O)c4c(F)cccc4-n4nccn4)C[C@@H]32)n1 [Example 29, (1R,6S)-[8-(4,6-Dimethyl-pyrimidin-2-yl)-3,8-diaza-bicyclo[4.2.0]oct-3-yl]-(2-fluoro-6-[1,2,3]triazol-2-yl-phenyl)-methanone]
13 nM	978 nM	Cc1cc(C)nc(N2C[C@@H]3CCN(C(=O)c4ccc(F)cc4-n4nccn4)C[C@@H]32)n1 [Example 30, (1R,6S)-[8-(4,6-Dimethyl-pyrimidin-2-yl)-3,8-diaza-bicyclo[4.2.0]oct-3-yl]-(4-fluoro-2-[1,2,3]triazol-2-yl-phenyl)-methanone]
81 nM	≥ 10000 nM	Cc1cnc(C)c(N2C[C@@H]3CCN(C(=O)c4ccc(F)cc4-n4nccn4)C[C@@H]32)n1 [Example 31, (1R,6S)-[8-(3,6-Dimethyl-pyrazin-2-yl)-3,8-diaza-bicyclo[4.2.0]oct-3-yl]-(4-fluoro-2-[1,2,3]triazol-2-yl-phenyl)-methanone]
13 nM	134 nM	Cc1cc(N2C[C@@H]3CCN(C(=O)c4c(F)cccc4-n4nccn4)C[C@@H]32)nc(C(F)(F)F)n1 [Example 32, (1R,6S)-(2-Fluoro-6-[1,2,3]triazol-2-yl-phenyl)-[8-(6-methyl-2-trifluoromethyl-pyrimidin-4-yl)-3,8-diaza-bicyclo[4.2.0]oct-3-yl]-methanone]
50 nM	1040 nM	Cc1cc(N2C[C@@H]3CCN(C(=O)c4ccc(F)cc4-n4nccn4)C[C@@H]32)nc(C(F)(F)F)n1 [Example 34, (1R,6S)-(4-Fluoro-2-[1,2,3]triazol-2-yl-phenyl)-[8-(6-methyl-2-trifluoromethyl-pyrimidin-4-yl)-3,8-diaza-bicyclo[4.2.0]oct-3-yl]-methanone]
24 nM	117 nM	Cc1cc(N2C[C@@H]3CCN(C(=O)c4ccccc4-n4nccn4)C[C@@H]32)nc(C(F)(F)F)n1 [Example 35, (1R,6S)-[8-(6-Methyl-2-trifluoromethyl-pyrimidin-4-yl)-3,8-diaza-bicyclo[4.2.0]oct-3-yl]-(2-[1,2,3]triazol-2-yl-phenyl)-methanone]

SMILES	Ki (human orexin-2 receptor)	Ki (human orexin 1 receptor)
Cc1ccc(-n2nccn2)c(C(=O)N2CC[C@H]3CN(c4nc(C)cc(C)n4)[C@H]3C2)c1 [Example 26, (1R,6S)-[8-(4,6-Dimethyl-pyrimidin-2-yl)-3,8-diaza-bicyclo[4.2.0]oct-3-yl]-(5-methyl-2-[1,2,3]triazol-2-yl-phenyl)-methanone]	13 nM	52 nM
